Assay results from patent US9981004B2, “Inhibition of TREM receptor signaling with peptide variants” (SignaBlok, Inc., priority 2009, dated 2018).

Test: Solubility of CP and CP-A peptides
Assay type: physicochemical
From the text: A variety of solvents and carriers can be tested to improve their solubility. Solvents and/or carriers that improve solubility of CP and CP-A include, but are not limited to, ethanol, dimethylsulphoxide (DMSO), dimethyl formamide (DMF), and trifluoracetic acid (TFA). When using DMSO as a solvent, the final concentration used in the cell function experiments may range from 0.063%-0.250%. Stock solutions of CP and CP-A can be prepared in DMSO and used at a 1:2000, 1:1000, or 1:400 dilution. In one embodiment, drug delivery systems (i.e., for example, lipid vesicles) can be used to increase solubility and bioavailability of CP and CP-A.

Row | Substance | solubility in aqueous solutions
1 | H-GFLSASLVF-OH [CP-A, NH2-Gly-Phe-Leu-Ser-Ala-Ser-Leu-Val-Phe-OH] | insoluble in aqueous solutions
2 | H-GFLSKSLVF-OH [CP, NH2-Gly-Phe-Leu-Ser-Lys-Ser-Leu-Val-Phe-OH] | insoluble in aqueous solutions
